Consider 1 compound from ChEMBL document CHEMBL1145700, “Pyraxinine, a Novel Nitrogenous Compound from the Marine Sponge Cymbastela cantharella” (J Nat Prod, 1997).

This assay is described as follows: Inhibition of LPS-induced macrophagic NOS at 100 uM.

Structures are written as SMILES.

As usually defined, the inhibition is the share of the control response that was lost under treatment. The compound `N=C(N)Nc1cccnc1` gave an inhibition of 50%.
